Test results from the kinase profiling compilation of Christmann-Franck et al. (2016).

Key:
Settings in all cases: compound 10.0 µM
ACVR1 (human) = ACVR1 (human) (UniProt Q04771)
BMP2K (human) = BMP2K (human) (UniProt Q9NSY1)
BMPR1B (human) = BMPR1B (human) (UniProt O00238)
CAMK2G (human) = CAMK2G (human) (UniProt Q13555)
CDC42BPA (human) = CDC42BPA (human) (UniProt Q5VT25)
CDC42BPG (human) = CDC42BPG (human) (UniProt Q6DT37)
CDK11B (human) = CDK11B (human) (UniProt P21127)
CDK18 (human) = CDK18 (human) (UniProt Q07002)
CDK19 (human) = CDK19 (human) (UniProt Q9BWU1)
CDK4 CCND3 (human) = CDK4 CCND3 (human) (UniProt P11802+P30281)
CSNK1A1L (human) = CSNK1A1L (human) (UniProt Q8N752)
Sequence of CSNK1A1L (human) (Q8N752 whole entry, looked up): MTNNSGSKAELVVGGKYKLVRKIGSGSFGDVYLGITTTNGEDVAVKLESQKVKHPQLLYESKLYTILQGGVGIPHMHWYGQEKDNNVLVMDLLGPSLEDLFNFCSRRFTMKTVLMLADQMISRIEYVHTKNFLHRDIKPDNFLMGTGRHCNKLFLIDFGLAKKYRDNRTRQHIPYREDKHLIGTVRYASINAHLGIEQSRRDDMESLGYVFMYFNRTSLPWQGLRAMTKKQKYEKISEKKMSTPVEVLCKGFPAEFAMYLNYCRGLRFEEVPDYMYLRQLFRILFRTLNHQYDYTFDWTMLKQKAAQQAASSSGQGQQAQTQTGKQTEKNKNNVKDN

DDR1 (human) = DDR1 (human) (UniProt Q08345)
DMPK (human) = DMPK (human) (UniProt Q09013)
EPHA2 (human) = EPHA2 (human) (UniProt P29317)
EPHA7 (human) = EPHA7 (human) (UniProt Q15375)
FGFR4 (human) = FGFR4 (human) (UniProt P22455)
GRK1 (human) = GRK1 (human) (UniProt Q15835)
Sequence of GRK1 (human) (Q15835 whole entry, looked up): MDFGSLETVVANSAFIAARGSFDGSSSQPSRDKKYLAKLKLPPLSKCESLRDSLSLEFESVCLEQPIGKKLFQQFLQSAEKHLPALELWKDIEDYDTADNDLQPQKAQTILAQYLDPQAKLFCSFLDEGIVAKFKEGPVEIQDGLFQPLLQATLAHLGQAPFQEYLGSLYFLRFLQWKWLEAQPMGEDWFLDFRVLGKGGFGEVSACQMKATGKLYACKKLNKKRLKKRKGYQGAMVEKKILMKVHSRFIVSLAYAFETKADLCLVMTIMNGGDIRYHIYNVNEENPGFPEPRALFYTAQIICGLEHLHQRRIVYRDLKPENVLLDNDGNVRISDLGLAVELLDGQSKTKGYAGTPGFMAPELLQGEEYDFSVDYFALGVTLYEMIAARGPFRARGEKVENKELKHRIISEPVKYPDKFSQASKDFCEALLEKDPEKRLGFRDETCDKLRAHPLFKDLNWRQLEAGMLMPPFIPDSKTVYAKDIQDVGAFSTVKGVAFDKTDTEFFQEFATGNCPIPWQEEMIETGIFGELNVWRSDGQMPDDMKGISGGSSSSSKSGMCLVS

GSK3B (human) = GSK3B (human) (UniProt P49841)
HCK (human) = HCK (human) (UniProt P08631)
HIPK4 (human) = HIPK4 (human) (UniProt Q8NE63)
Sequence of HIPK4 (human) (Q8NE63 whole entry, looked up): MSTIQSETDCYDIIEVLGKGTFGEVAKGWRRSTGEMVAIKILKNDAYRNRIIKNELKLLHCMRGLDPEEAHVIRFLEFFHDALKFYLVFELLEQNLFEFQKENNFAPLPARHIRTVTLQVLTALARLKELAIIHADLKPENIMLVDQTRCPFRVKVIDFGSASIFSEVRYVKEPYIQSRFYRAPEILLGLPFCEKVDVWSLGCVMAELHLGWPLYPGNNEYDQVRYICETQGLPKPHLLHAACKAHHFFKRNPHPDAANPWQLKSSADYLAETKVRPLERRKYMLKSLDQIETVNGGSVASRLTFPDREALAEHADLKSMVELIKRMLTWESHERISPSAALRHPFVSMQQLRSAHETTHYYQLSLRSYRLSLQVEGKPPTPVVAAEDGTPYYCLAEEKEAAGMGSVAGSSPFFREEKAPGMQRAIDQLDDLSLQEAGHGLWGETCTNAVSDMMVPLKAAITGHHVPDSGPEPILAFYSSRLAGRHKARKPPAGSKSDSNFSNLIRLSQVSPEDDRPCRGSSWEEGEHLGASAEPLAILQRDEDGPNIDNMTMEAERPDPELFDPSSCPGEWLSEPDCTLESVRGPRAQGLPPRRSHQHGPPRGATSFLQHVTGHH

[1] = molecular target: JAK2 JH1 catalytic (human) (UniProt O60674)
MAP2K3 (human) = MAP2K3 (human) (UniProt P46734)
Sequence of MAP2K3 (human) (P46734 whole entry, looked up): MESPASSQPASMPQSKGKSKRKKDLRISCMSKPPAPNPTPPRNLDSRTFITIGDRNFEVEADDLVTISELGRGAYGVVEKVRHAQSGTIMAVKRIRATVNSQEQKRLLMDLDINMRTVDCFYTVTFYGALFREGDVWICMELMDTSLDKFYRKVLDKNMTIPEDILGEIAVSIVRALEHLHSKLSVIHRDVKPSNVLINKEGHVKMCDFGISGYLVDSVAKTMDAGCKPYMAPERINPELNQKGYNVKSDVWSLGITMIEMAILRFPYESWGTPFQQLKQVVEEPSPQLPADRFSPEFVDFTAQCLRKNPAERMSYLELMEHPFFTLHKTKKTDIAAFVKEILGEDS

MAPK3 (human) = MAPK3 (human) (UniProt P27361)
MTOR (human) = MTOR (human) (UniProt P42345)
MYLK4 (human) = MYLK4 (human) (UniProt Q86YV6)
NEK5 (human) = NEK5 (human) (UniProt Q6P3R8)
NTRK1 (human) = NTRK1 (human) (UniProt P04629)
PAK1 (human) = PAK1 (human) (UniProt Q13153)
PAK3 (human) = PAK3 (human) (UniProt O75914)
PIK3C2B (human) = PIK3C2B (human) (UniProt O00750)
Sequence of PIK3C2B (human) (O00750 whole entry, looked up): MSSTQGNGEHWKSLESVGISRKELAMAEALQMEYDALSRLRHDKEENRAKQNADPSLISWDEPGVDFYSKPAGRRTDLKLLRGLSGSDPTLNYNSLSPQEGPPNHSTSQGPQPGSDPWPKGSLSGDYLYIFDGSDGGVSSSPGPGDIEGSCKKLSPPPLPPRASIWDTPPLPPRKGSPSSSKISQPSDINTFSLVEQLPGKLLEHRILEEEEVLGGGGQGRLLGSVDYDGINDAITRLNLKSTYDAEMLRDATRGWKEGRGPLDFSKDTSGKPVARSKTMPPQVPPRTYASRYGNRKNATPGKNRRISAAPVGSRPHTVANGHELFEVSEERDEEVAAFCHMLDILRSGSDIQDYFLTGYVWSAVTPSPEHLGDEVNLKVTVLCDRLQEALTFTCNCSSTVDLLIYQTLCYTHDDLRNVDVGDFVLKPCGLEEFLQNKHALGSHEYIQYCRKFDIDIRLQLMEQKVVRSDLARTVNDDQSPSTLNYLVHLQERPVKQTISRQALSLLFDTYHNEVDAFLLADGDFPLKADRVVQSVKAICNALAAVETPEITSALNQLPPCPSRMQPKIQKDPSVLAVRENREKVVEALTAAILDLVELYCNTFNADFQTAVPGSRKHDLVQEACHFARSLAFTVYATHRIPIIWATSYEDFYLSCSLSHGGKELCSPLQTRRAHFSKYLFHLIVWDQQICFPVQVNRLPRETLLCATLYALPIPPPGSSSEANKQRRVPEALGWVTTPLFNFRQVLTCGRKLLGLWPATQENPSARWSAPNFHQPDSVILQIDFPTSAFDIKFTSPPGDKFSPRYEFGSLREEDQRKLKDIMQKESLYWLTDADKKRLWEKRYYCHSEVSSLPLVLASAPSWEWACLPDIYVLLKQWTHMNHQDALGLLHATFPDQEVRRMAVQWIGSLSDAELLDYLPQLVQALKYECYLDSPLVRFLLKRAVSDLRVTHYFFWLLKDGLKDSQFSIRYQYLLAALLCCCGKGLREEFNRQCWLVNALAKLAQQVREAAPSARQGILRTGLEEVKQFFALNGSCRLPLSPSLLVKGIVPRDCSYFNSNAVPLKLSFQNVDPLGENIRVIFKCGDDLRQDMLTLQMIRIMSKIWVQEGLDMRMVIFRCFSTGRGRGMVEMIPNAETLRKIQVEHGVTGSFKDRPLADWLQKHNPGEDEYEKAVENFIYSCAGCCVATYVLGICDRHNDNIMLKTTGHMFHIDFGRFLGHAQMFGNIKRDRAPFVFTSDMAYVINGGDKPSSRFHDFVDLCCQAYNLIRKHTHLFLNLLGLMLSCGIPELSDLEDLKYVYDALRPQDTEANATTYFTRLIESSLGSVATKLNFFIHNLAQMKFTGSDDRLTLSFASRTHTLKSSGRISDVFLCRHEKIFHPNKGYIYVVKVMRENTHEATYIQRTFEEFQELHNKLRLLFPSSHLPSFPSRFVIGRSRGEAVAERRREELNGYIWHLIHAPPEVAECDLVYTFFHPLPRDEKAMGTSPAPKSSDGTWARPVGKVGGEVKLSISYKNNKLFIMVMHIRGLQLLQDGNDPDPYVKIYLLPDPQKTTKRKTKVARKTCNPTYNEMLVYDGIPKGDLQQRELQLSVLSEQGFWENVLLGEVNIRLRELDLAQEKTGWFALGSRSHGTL

PKN2 (human) = PKN2 (human) (UniProt Q16513)
PRKCQ (human) = PRKCQ (human) (UniProt Q04759)
[2] = test system: RET (human), P07949 [M918T]
RIOK2 (human) = RIOK2 (human) (UniProt Q9BVS4)
RPS6KA6 KD1 (human) = RPS6KA6 KD1 (human) (UniProt Q9UK32)
SYK (human) = SYK (human) (UniProt P43405)
TGFBR2 (human) = TGFBR2 (human) (UniProt P37173)
TLK2 (human) = TLK2 (human) (UniProt Q86UE8)
TRPM6 (human) = TRPM6 (human) (UniProt Q9BX84)
TYRO3 (human) = TYRO3 (human) (UniProt Q06418)
Sequence of TYRO3 (human) (Q06418 whole entry, looked up): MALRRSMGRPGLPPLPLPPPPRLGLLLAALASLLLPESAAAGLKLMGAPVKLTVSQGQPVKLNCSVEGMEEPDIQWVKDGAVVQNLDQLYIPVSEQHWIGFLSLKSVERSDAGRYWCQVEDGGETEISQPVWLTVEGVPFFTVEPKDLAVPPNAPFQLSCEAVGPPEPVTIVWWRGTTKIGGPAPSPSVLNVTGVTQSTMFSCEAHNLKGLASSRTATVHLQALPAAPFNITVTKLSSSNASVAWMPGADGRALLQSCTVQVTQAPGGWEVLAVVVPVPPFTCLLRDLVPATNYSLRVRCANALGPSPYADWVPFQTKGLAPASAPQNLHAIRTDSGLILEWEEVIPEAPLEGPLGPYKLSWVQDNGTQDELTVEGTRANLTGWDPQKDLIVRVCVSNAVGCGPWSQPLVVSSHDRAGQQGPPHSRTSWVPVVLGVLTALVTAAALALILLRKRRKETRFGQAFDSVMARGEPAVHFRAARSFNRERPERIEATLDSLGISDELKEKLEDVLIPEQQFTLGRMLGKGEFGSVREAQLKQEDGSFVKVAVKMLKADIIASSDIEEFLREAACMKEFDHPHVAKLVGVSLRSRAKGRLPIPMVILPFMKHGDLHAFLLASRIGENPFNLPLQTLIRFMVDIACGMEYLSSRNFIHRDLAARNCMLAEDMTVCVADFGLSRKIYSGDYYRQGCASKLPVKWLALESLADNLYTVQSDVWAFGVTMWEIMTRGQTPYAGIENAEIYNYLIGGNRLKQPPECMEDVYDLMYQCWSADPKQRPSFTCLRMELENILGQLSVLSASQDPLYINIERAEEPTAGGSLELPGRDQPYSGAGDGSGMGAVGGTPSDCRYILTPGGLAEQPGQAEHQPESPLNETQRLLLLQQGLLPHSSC

ULK3 (human) = ULK3 (human) (UniProt Q6PHR2)
Sequence of ULK3 (human) (Q6PHR2 whole entry, looked up): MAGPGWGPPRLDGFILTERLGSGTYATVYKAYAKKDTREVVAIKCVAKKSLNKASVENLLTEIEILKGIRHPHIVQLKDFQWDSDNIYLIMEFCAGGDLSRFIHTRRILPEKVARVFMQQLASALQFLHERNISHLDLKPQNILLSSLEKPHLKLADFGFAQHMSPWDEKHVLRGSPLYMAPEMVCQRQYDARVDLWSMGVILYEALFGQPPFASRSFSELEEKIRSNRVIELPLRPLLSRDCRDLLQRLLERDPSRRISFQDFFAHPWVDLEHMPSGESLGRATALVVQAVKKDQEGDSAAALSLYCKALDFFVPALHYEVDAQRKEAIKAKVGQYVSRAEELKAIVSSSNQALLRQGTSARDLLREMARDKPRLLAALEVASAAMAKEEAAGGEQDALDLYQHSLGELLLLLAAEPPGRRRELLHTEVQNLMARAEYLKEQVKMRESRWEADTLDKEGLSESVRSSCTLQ

CNC(=O)c1cc(Oc2ccc(NC(=O)Nc3ccc(Cl)c(C(F)(F)F)c3)cc2)ccn1
per cent of control (ACVR1 (human)): 100% | per cent of control (BMP2K (human)): 65% | per cent of control (BMPR1B (human)): 93% | per cent of control (CAMK2G (human)): 100% | per cent of control (CDC42BPA (human)): 96% | per cent of control (CDC42BPG (human)): 84% | per cent of control (CDK11B (human)): 93% | per cent of control (CDK18 (human)): 57% | per cent of control (CDK19 (human)): 0.7% | per cent of control (CDK4 CCND3 (human)): 100% | per cent of control (CSNK1A1L (human)): 100% | per cent of control (DDR1 (human)): 0% | per cent of control (DMPK (human)): 90% | per cent of control (EPHA2 (human)): 9% | per cent of control (EPHA7 (human)): 7.6% | per cent of control (FGFR4 (human)): 43% | per cent of control (GRK1 (human)): 100% | per cent of control (GSK3B (human)): 92% | per cent of control (HCK (human)): 14% | per cent of control (HIPK4 (human)): 4.5% | per cent of control [1]: 70% | per cent of control (MAP2K3 (human)): 93% | per cent of control (MAPK3 (human)): 95% | per cent of control (MTOR (human)): 100% | per cent of control (MYLK4 (human)): 88% | per cent of control (NEK5 (human)): 100% | per cent of control (NTRK1 (human)): 22% | per cent of control (PAK1 (human)): 100% | per cent of control (PAK3 (human)): 56% | per cent of control (PIK3C2B (human)): 100% | per cent of control (PKN2 (human)): 100% | per cent of control (PRKCQ (human)): 76% | per cent of control [2]: 0% | per cent of control (RIOK2 (human)): 48% | per cent of control (RPS6KA6 KD1 (human)): 100% | per cent of control (SYK (human)): 77% | per cent of control (TGFBR2 (human)): 25% | per cent of control (TLK2 (human)): 99% | per cent of control (TRPM6 (human)): 100% | per cent of control (TYRO3 (human)): 100% | per cent of control (ULK3 (human)): 100%

CNC(=O)c1cc(Oc2ccc(NC(=O)Nc3ccc(Cl)c(C(F)(F)F)c3)cc2)cc[n+]1[O-]
per cent of control (ACVR1 (human)): 100% | per cent of control (BMP2K (human)): 100% | per cent of control (BMPR1B (human)): 81% | per cent of control (CAMK2G (human)): 96% | per cent of control (CDC42BPA (human)): 90% | per cent of control (CDC42BPG (human)): 86% | per cent of control (CDK11B (human)): 100% | per cent of control (CDK18 (human)): 26% | per cent of control (CDK19 (human)): 0.35% | per cent of control (CDK4 CCND3 (human)): 62% | per cent of control (CSNK1A1L (human)): 100% | per cent of control (DDR1 (human)): 0.05% | per cent of control (DMPK (human)): 91% | per cent of control (EPHA2 (human)): 4.7% | per cent of control (EPHA7 (human)): 33% | per cent of control (FGFR4 (human)): 39% | per cent of control (GRK1 (human)): 100% | per cent of control (GSK3B (human)): 79% | per cent of control (HCK (human)): 8.8% | per cent of control (HIPK4 (human)): 2.3% | per cent of control [1]: 68% | per cent of control (MAP2K3 (human)): 71% | per cent of control (MAPK3 (human)): 92% | per cent of control (MTOR (human)): 100% | per cent of control (MYLK4 (human)): 100% | per cent of control (NEK5 (human)): 100% | per cent of control (NTRK1 (human)): 4% | per cent of control (PAK1 (human)): 100% | per cent of control (PAK3 (human)): 43% | per cent of control (PIK3C2B (human)): 100% | per cent of control (PKN2 (human)): 91% | per cent of control (PRKCQ (human)): 80% | per cent of control [2]: 0% | per cent of control (RIOK2 (human)): 42% | per cent of control (RPS6KA6 KD1 (human)): 97% | per cent of control (SYK (human)): 89% | per cent of control (TGFBR2 (human)): 3.1% | per cent of control (TLK2 (human)): 100% | per cent of control (TRPM6 (human)): 100% | per cent of control (TYRO3 (human)): 100% | per cent of control (ULK3 (human)): 82%
